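Compound exposure: 48 hours, 5 concentrations, 96-well plates. GI50 = concentration required for 50% inhibition of growth. TGI: total growth inhibition.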 Where only a bound is given, the exact number is not on record here.

Consider 16 compounds from PubChem BioAssay (NCI).

Common to all, as to assay: inhibition of tumour cell growth, NCI panel, 48 h
The subject of assay [1] is RXF 393 renal.
The test system of assay [2] is HCC-2998 colon.
Assay [3] deals with OVCAR-8 ovarian.
Assay [4] concerns NCI-H460 lung.
Assay [5] has as its system HCT-116 colon.
Assay [6] relates to HT29 colon.
For assay [7], the system named is MALME-3M melanoma.
The test system of assay [8] is A498 renal.
Assay [9] concerns RPMI-8226 leukemia.

For `CC1=C(c2cc(C(=O)Nc3ccc(Cl)cc3)nc(=S)[nH]2)Sc2ccccc2N1`, the TGI in [1], in [2], in [3], in assay [4], in assay [5] and in [6] was over 100 µM in each case. Besides, the TGI in [7] and in [8] was over 100 µM throughout.
In the case of `CCOC(=O)/C(=C/c1cccc(C#N)c1)N(CC)CC`, the TGI in assay [2], in [9], in [3], in assay [4], in [5] and in assay [6] was over 100 µM each time. For the same compound, the TGI in assay [7] and in assay [8] was over 100 µM in each case.
In the case of `O=c1nc(-c2ccccc2)cc(-c2ccccc2O)[nH]1`, the TGI in [1], in assay [2], in assay [9], in assay [3], in assay [4] and in assay [5] was over 100 µM throughout. Moreover, the TGI in [6], in assay [7] and in assay [8] was over 100 µM in each case.
In the case of `O=c1c2ccccc2nc(-c2ccccc2)n1NC(=S)Nc1ccccc1`, the TGI in assay [1], in assay [9], in assay [3], in assay [4], in assay [5] and in assay [6] was over 100 µM throughout. The TGI in [7] and in assay [8] was over 100 µM in each case.
For `CC(C)(C)OC(=O)N1N=NC2C1C1CC(OCc3ccccc3)(OCc3ccccc3)C2O1` (centres undefined), the TGI in assay [1] is over 100 µM; in assay [2], over 100 µM; in assay [9] it was 63.6 µM; in assay [4] it was over 100 µM; in assay [6], over 100 µM; in assay [7], over 100 µM. In addition, the TGI in assay [8] was over 100 µM.
`Oc1ccc(Br)cc1C=Nc1ccc(N=Cc2cc(Br)ccc2O)cc1`: the TGI in assay [1], in assay [2], in assay [9], in assay [3], in assay [4] and in assay [5] was over 100 µM throughout. Moreover, the TGI in assay [6], in [7] and in assay [8] was over 100 µM throughout.
For `CC1=C(C(=O)NNS(=O)(=O)c2ccc(C)cc2)CC(C(=O)NNS(=O)(=O)c2ccc(C)cc2)=C(C)N1`, the TGI in [1], in [2], in assay [9], in [3], in assay [4] and in assay [5] was over 100 µM throughout. Further, the TGI in assay [6] and in [7] was over 100 µM each time.
Take `COc1ccc2c(c1)C(C)Cc1c(ncnc1-n1cnc3cc(C)ccc31)N2C` (centres undefined): the GI50 in assay [1] is 0.0305 µM; in assay [2] it was 0.329 µM; in assay [9] it was 0.0407 µM; in assay [3] it was 0.244 µM; in assay [4] it was 0.128 µM; in assay [5] it was 0.0736 µM. Also, the figures for the GI50 in assay [6] and in [8] were 0.174 µM and 0.0255 µM, respectively. Further, the TGI in [1] stood at 25.3 µM; in [2], 13.3 µM; in assay [9], 3.88 µM; in assay [3], 0.938 µM; in assay [4], 10.3 µM; in assay [5], 14.9 µM. Besides, the TGI in [6] worked out at 0.611 µM; in [8], 0.0889 µM.
In the case of `C=CCn1c2c(sc1=S)C(S)N=CN2` (centres undefined), the TGI in [1], in assay [2], in assay [9], in [3], in [4] and in [5] was over 100 µM in each case. In addition, the TGI in assay [6], in assay [7] and in assay [8] was over 100 µM in each case.
For the compound `Cc1cccc(C)c1NC(=O)C(=O)CC(=O)c1cccc([N+](=O)[O-])c1`, the TGI in assay [9], in assay [3], in assay [4], in assay [5], in assay [6] and in assay [7] was over 100 µM throughout. Besides, the TGI in [8] is over 100 µM.
`COc1cc(C(=O)N2CCc3c([nH]c4c([N+](=O)[O-])c(OC)ccc34)C2C)cc(OC)c1OC` (centres undefined): the TGI in assay [1] is 91.2 µM; in [2], over 100 µM; in assay [9] it was over 100 µM; in assay [3], over 100 µM; in assay [4], over 100 µM; in [5], over 100 µM. Moreover, the TGI in assay [6] and in [8] was over 100 µM throughout.
With `O=S1(=O)OCCOS(=O)(=O)C1Cl`, the TGI in assay [2], in assay [9], in [3], in [5], in assay [6] and in [7] was over 100 µM each time. For the same compound, in assay [8], the TGI is over 100 µM.
Take `OCCNCCOc1ccc(/C(=C(/Cl)c2ccccc2)c2ccccc2)cc1`: the TGI in assay [1] amounted to 14.7 µM; in assay [9] it was 17.3 µM; in assay [3], 28 µM; in assay [4] it was 18.2 µM; in assay [5], 20.2 µM; in assay [6], 10 µM.
With `O=C(O)CSc1n[nH]c(Cc2ccccc2)n1`, the TGI in [1], in assay [2], in assay [9], in assay [3], in assay [4] and in [5] was over 100 µM each time. Also, the TGI in assay [6] and in assay [7] was over 100 µM each time.
In the case of `COc1cc(C(=O)C/C(CCC(=O)Nc2ccc(Cl)cc2Cl)=N/NC(=O)C(=O)NN)ccc1O`, the TGI in assay [1], in assay [2], in assay [3], in assay [4], in assay [5] and in assay [6] was over 100 µM throughout. Further, the TGI in assay [7] and in assay [8] was over 100 µM in each case.
Turning to `Nc1ccc2nc3n(c2c1)C(=O)c1ccccc1-3`, the TGI in assay [1], in [2], in [9], in [3], in assay [4] and in assay [5] was over 100 µM in each case. Also, the TGI in assay [6] and in assay [7] was over 100 µM each time.
